According to US20110263454A1, “Methods of Identifying Functional Characteristics of Promoters, Transcription Modifying Proteins and Transcription Modulating Agents” (Salk Institute for Biological Studies, priority 2008, published 2011):

Legend:
[1] = tested on: hMyoD promoter; experiment: NHR-promoter luciferase screen, hMyoD promoter; format: cell-based, human; conditions: for Luc. act., normalized to lacZ / Normalized Luc. act., normalized to control: MyoD promoter reporter, co-transfected HR, without or with its ligand; for Normalized Luc. act., normalized to control: relative to control; for luciferase activity normalized to lacZ activity and to a control, hMyoD: hMyoD promoter-luciferase, CV-1 cells, NHR +/- ligand, control = 1.00
Protocol: (§1) The use, feasibility, and reproducibility of the functional NHR-promoter screen in a 48-well format have been tested validated. Briefly, there were co-expressed 50 ng of each NHR/NHR homodimer or NHR/RXR heterodimer with 100 ng promoter/luciferase construct and 50 ng of LacZ (as a control for transfection efficiency) in CV-1 cells using Fugene HD (Roche) as a transfection reagent (alternatively or additionally, a CMV-YFP construct can be used as a transfection control). Each of the nuclear hormone receptors that were used in these experiments was cloned into a pcDNA3.1 vector and comprised a C-terminally linked V5H6 tag. Twenty-four hours after transfection, appropriate ligands were added, where applicable, (see Table 5 for various ligands and concentrations and after 48 hrs, samples were assayed for luciferase and LacZ activity. To measure for luciferase activity 15 ul of sample was added to 30 ul of luciferase buffer (20 mM tricine, 1.07 mM MgCarbonate, 2.67 mM MgSulfate, 0.1 mM Naz-EDTA, 5 mM DTT, 5 mM ATP, 0.15 mg/ml CoA, 0.5 mM Luciferin), mixed briefly, and run in a Perkin Elmer Victor 5 luminometer. Thus, the functional NHR-promoter screen was used to observe the transcriptional activity of 29 promoters from various physiological pathways including inflammation, lipid and sugar metabolism, cholesterol transport, xenobiotic metabolism, and circadian rhythm.
(§2) The promoters that facilitate transcription of the indicated gene products that were tested using the protocols described herein are listed in the first row of the table. The nuclear hormone receptors and, where applicable, ligands that were assayed for their transcriptional effects on the promoters are listed in the first column of the table. The data represent the luciferase activity of each sample normalized to both the lacZ activity of that sample and to a control, e.g., no NHR or ligand, as customary in the art. As described previously, these normalizations allow the transcriptional activity of each reporter cell to be compared to other samples.
(§3) Tables 7-40 show the transcriptional effects of the hormone receptors, and, where applicable, ligands (orphan receptors are screened without ligand), on each individual promoter. […] The control data of each table are shown in their last rows.

[2] = tested on: mAgrp promoter; experiment: NHR-promoter luciferase screen, mAgrp promoter; format: cell-based, mouse; conditions: for Results of assays of transcription factor (+/- ligand) with mAgrp: Table 6d, luciferase activity relative to control (control = 1.00); for Luc. act., normalized to lacZ / Normalized Luc. act., normalized to control: mAgrp promoter, HR component with or without ligand; for Normalized Luc. act., normalized to control: relative to control
Protocol: as §1, §2, §3

[3] = tested on: mPOMC promoter; experiment: NHR-promoter luciferase screen, mPOMC promoter; format: cell-based, mouse; conditions: for Results of assays of transcription factor (+/- ligand) with mPOMC: Table 6d, luciferase activity relative to control (control = 1.00); for Luc. act., normalized to lacZ / Normalized Luc. act., normalized to control: mPOMC promoter, HR component with or without ligand; for Normalized Luc. act., normalized to control: relative to control
Protocol: as §1, §2, §3

[4] = tested on: hIRF7 promoter; experiment: NHR-promoter luciferase screen, hIRF7 promoter; format: cell-based, human; conditions: for Normalized Luc. act., normalized to control / Luc. act., normalized to lacZ: IRF7 promoter reporter; for Normalized Luc. act., normalized to control: HR without or with its ligand, relative to control; for Luc. act., normalized to lacZ: hormone receptor (HR) without or with its ligand; for hIRF7 promoter reporter activity: transcription factor +/- ligand, control = 1.00
Protocol: as §1, §2, §3

[5] = tested on: mAdiponectin promoter; experiment: NHR-promoter luciferase screen, mAdiponectin promoter; format: cell-based, mouse; conditions: for Luc. act., normalized to lacZ / Normalized Luc. act., normalized to control: Adiponectin, HR component without or with its ligand; for mAdiponectin promoter reporter activity: transcription factor +/- ligand, control = 1.00
Protocol: as §1, §2, §3

Substance | Luc. act., normalized to lacZ [1] | Normalized Luc. act., normalized to control [1] | luciferase activity normalized to lacZ activity and to a control, hMyoD [1] | Results of assays of transcription factor (+/- ligand) with mAgrp [2] | Luc. act., normalized to lacZ [2] | Normalized Luc. act., normalized to control [2] | Results of assays of transcription factor (+/- ligand) with mPOMC [3] | Luc. act., normalized to lacZ [3] | Normalized Luc. act., normalized to control [3] | Normalized Luc. act., normalized to control [4] | Luc. act., normalized to lacZ [4] | hIRF7 promoter reporter activity [4] | Luc. act., normalized to lacZ [5] | Normalized Luc. act., normalized to control [5] | mAdiponectin promoter reporter activity [5] | luciferase/LacZ, mAgrp (selected results) ([2]; mAgrp promoter-luciferase, NHR +/- ligand, control = 1.0)
PPARa: Peroxisome proliferator activated receptor α (NR1C1), cDNA driver | 63.7 | 1.0 | 1.01 | 1.06 | 42.1 | 1.1 | 1.13 | 77.6 | 1.1 | 1.4 | 36.6 | 1.39 | 40.4 | 0.6 | 0.64 | 
PPARg: Peroxisome proliferator activated receptor γ (NR1C3), cDNA driver | 74.5 | 1.2 | 1.18 | 1.84 | 73.0 | 1.8 | 1.57 | 108.0 | 1.6 | 1.7 | 44.8 | 1.70 | 80.6 | 1.3 | 1.28 | 1.8
ERR1: Estrogen Related Receptor α (NR3B1, ERRa), cDNA driver | 69.1 | 1.1 | 1.09 | 1.15 | 45.5 | 1.1 | 1.00 | 68.9 | 1.0 | 1.2 | 31.3 | 1.19 | 49.2 | 0.8 | 0.78 | 
VDR: Vitamin D Receptor (NR1I1), cDNA driver | 52.8 | 0.8 | 0.83 | 1.14 | 45.3 | 1.1 | 1.16 | 79.8 | 1.2 | 1.1 | 30.2 | 1.15 | 57.4 | 0.9 | 0.91 | 
LXRa: Liver X Receptor α (NR1H3), cDNA driver | 60.1 | 0.9 | 0.95 | 1.58 | 62.5 | 1.6 | 1.70 | 117.1 | 1.7 | 1.3 | 33.2 | 1.26 | 60.7 | 1.0 | 0.97 | 
RXRa: Retinoic X Receptor α (NR2B1), cDNA driver | 51.2 | 0.8 | 0.81 | 1.17 | 46.4 | 1.2 | 0.99 | 68.0 | 1.0 | 1.0 | 27.5 | 1.04 | 57.3 | 0.9 | 0.91 | 
